From ChEMBL document CHEMBL1201862, “PubChem BioAssay data set” (2004)
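Tested at 5 concentrations; 48 h exposure; 96-well plates; endpoints linearly interpolated, else capped at highest concentration. GI50 = concentration required for 50% inhibition of growth.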 Active and inactive are the calls of the source. No stated cut-off is given here; in the data, active = GI50 up to about 1.1 µM and inactive = higher.

Legend:
Experiment in all cases: NCI-60 cell line screen, 48 h
[1] = system: 786-0
[2] = system: A498
[3] = system: BT-549
[4] = system: CAKI-1
[5] = system: CCRF-CEM
[6] = system: HCT-116
[7] = system: HL-60
[8] = system: K562
[9] = system: MCF7
[10] = system: MDA-MB-435
[11] = system: MOLT-4
[12] = system: NCI-H23
[13] = system: NCI-H522
[14] = system: OVCAR-4
[15] = system: OVCAR-5
[16] = system: OVCAR-8
[17] = system: SF-268
[18] = system: SF-539
[19] = system: SK-MEL-28
[20] = system: SNB-75

Measured: GI50

CC1=CC(=O)c2ccccc2C1=O [MENADIONE]
inactive: [1] 14.6 µM | [2] 22.6 µM | [3] 12.3 µM | [4] 16.1 µM | [5] 2.03 µM | [6] 2 µM | [7] 2 µM | [8] 2.38 µM | [9] 8.34 µM | [10] 1.84 µM | [11] 1.77 µM | [12] 7.06 µM | [13] 5.06 µM | [14] 3.87 µM | [15] 11.8 µM | [16] 10.1 µM | [17] 7.52 µM | [18] 3.61 µM | [19] 4.94 µM | [20] 10.2 µM
